Results published in article PMC11391341, “Rational design and in vitro testing of new urease inhibitors to prevent urinary catheter blockage” (RSC Medicinal Chemistry, 2024).
Entries after “also recorded” stand apart in the source; their conditions may differ. Read-outs that look alike come from different tables or passages of the source.

Legend:
[1] = target: T1, urease expressed in whole cell Proteus mirabilis (Proteus mirabilis, UniProt P17086); assay: Urease activity assay (Berthelot), whole-cell P. mirabilis; assay type: cell-based; details: for A1 (dose-response fit parameter) / A2 (dose-response fit parameter): % urease activity; for A1 (dose-response fit parameter) / A2 (dose-response fit parameter) / LOGx0 (dose-response fit): Proteus mirabilis whole cell, Supplementary Table 3; for fold lower IC50 than AHA: whole cell P. mirabilis urease
T1 construct: Urease in P. mirabilis is intracellular; endogenous in cells; host or cells: Proteus mirabilis B4 (Jenkins Group collection, University of Bath), whole cells
T1 sequence (P17086 whole entry): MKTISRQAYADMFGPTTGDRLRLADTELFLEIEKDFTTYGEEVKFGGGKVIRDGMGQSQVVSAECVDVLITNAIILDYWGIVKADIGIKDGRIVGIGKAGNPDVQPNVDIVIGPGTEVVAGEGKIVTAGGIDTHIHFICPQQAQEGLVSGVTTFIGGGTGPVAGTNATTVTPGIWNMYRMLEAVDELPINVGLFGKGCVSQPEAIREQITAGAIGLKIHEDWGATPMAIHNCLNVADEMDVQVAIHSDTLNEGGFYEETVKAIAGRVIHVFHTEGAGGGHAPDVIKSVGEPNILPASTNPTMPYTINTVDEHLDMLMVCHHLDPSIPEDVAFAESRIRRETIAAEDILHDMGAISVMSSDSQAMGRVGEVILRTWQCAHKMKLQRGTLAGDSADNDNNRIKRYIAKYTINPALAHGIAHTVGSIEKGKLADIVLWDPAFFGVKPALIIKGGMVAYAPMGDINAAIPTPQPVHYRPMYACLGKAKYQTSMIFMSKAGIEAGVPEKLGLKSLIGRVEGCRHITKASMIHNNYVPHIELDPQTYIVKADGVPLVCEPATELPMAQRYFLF
Method: The in vitro assay used to measure the urease activity was the Berthelot assay, which measure the accumulation of ammonia.[54,55] Compounds were tested using whole-cell P. mirabilis B4 (from the Jenkins Group collection, University of Bath). P. mirabilis was cultured overnight, 37 °C with 200 rpm shaking in 10 mL of Luria-Bertani broth (LB, Merck, Germany). The overnight culture was centrifuged, 3100 g, 10 min, at 4 °C (5810 R Eppendorf); the supernatant was discarded, and the pellet resuspended in phosphate buffer saline (PBS, Fisher Scientific, UK). In each well of a 96-well plate (Corning) 10 μL of 0.5% sulfuric acid was added. P. mirabilis (100 μL, 0.004 mg mL^−1) in phosphate buffer was incubated with the desired compound concentration and urea (100 μL, 50 mM in phosphate buffer) for 30 min at 37 °C.
Experiments were run in triplicate of two technical replicates (n = 6), with 10-fold dilutions of the compounds including a positive and negative control. To each well, 20 μL of 60 mM sodium hydroxide is added. Solution A (50 μL, 106 mM phenol, 191 μM sodium nitroprusside) and solution B (50 μL, 125 mM sodium hydroxide, 125 mM sodium hypochlorite) were added to each well and the plate was incubated for 30 min at 37 °C. The absorbance of the wells was read at 636 nm (SPECTROstar Omega BMG LabTech, Germany). Urease activity was calculated using eqn (1). IC50 was determined using non-linear regression (GraphPad Prism v9).1 [drawing 1]

[2] = system: E. coli NSM59; assay: Minimum inhibitory concentration (MIC) assay, E. coli; assay type: cell-based, Escherichia coli
Method: (§1) The compound was dissolved in sterile water with 5% (v/v) DMSO. To the first column on a 96-well plate (Corning, UK), 200 μL of compound was added, it was then serially diluted two-fold (100 μL) across the plate to column 10. A subculture of P. mirabilis (1 × 10^6 CFU mL^−1) or E. coli NSM59 (1 × 10^6 CFU mL^−1, from the Jenkins Group collection, University of Bath), 100 μL, was added to all columns 1–10. LB broth only was added to column 11, the negative control and 200 μL of P. mirabilis/E. coli subculture was added to column 12, the positive control. The plate was incubated at 37 °C for 18 h, using a SPECTROstar Omega plate reader (BMJ LabTech) the absorbance at 600 nm was measured at regular time points during the 18 h incubation. The plate was shaken for 10 s, at 200 rpm prior to a reading being taken. The MIC was defined as the lowest concentration of compound that inhibited growth and the highest concentration that permitted bacterial growth. Initially, this was done through visualization of the plate after 18 h but also through examination of the growth curves measured at OD600.

[3] = Delivery across the catheter balloon into artificial urine (UV-vis); assay type: physicochemical; details: 37 °C, 12 h
Method: Delivery through the permeable balloon was measured using UV-vis spectroscopy with a quartz cuvette (pathlength 1 cm) (Agilent Cary 60 UV-vis spectrometer). Calibration curves for AHA (Sigma) and N,N′-bis(3-pyridinylmethyl)thiourea (Flurochem, Bis-TU (A11)) were prepared using absorbances 235 nm and 239 nm, respectively (Fig. S5 ^†). Sterile 50 mL beakers were used to mimic the bladder; catheters were inflated with compound solutions, AHA (320 mM) or Bis-TU (85 mM). Biomodics IPN catheters were compared to standard all-silicone catheters (Tiga-Med, Germany). Beakers were filled with artificial urine, prepared according to Nzakizwanayo et al., 30 mL was added to the beakers which were sealed with parafilm and incubated at 37 °C.[45] Every hour for 12 h, 1 mL was removed from the artificial urine surrounding the catheter balloon and the absorbance spectra was measured. The 1 mL was returned to the beaker, so the volume remained constant. The quantity of compound released over time was determined using the calibration curves. Limit of detection (LOD) was calculated by eqn (2), where σ is the standard deviation of the lowest concentration.2 [drawing 2]

[4] = Solubility (statement in conclusions); assay type: physicochemical
[5] = system: P. mirabilis B4; assay: Minimum inhibitory concentration (MIC) assay, P. mirabilis; assay type: cell-based, Proteus mirabilis
Method: as §1

[6] = system: P. mirabilis B4; assay: In vitro bladder model of the catheterized urinary tract; assay type: cell-based, Proteus mirabilis; details: balloon inflated with 20 mM compound, Biomodics IPN catheter
Method: The in vitro bladder model of a catheterized urinary tract enables the simulation of the crystalline biofilm and measurement of the blockage of the catheter caused by a P. mirabilis infection.[44,45] The artificial bladders were infected with a high inoculum of bacteria to mimic a late-stage CAUTI, average inoculation was 3.36 × 10^7 CFU mL^−1. Each model was catheterized with a Biomodics IPN catheter, and the balloons were inflated with 20 mM AHA in a 9 : 1 mixture of saline and DMSO; 20 mM Bis-TU in a 9 : 1 mixture of saline and DMSO; and the control bladder a 9 : 1 mixture of saline and DMSO. The artificial bladders were allowed to equilibrate over 18 h before inoculation. There is approximately a four-fold dilution during the diffusion of the compound in the artificial urine (∼5 mM at the start), however, this concentration changes once the pumps start because of the continual dilution from the filling of the bladder from the ‘kidneys’ and the drainage via the catheter. Monitoring of the pH and CFU mL^−1 in the bladder allowed tracking of the experiment (Fig. 6A and B). […] The blockage of the catheters was the end of the experiment and allowed determination of whether the compounds could increase the lifetime of the catheter (Fig. 6C).
In vitro bladder models were set up as described by Nzakizwanayo et al., the flow rate was set to run at 0.8 mL min^−1 using a Watson-Marlow 323S/D (030.3134.3DU) pump.[45] The artificial bladders were maintained at 37 °C and catheterized with Biomodics IPN catheters (donated by Biomodics ApS). Balloons were inflated with 10 mL of the following solutions: control bladder: a 9 : 1 mixture of saline (150 mM sodium chloride) and DMSO; Bis-TU bladder: 20 mM Bis-TU in a 9 : 1 mixture of saline and DMSO; and AHA bladder: 20 mM AHA in a 9 : 1 mixture of saline and DMSO. The models were set up and filled with artificial urine until they started to drain, the pump was then paused, and the compound solution allowed to equilibrate with the artificial urine in the bladder for 18 h. P. mirabilis B4 (from the Jenkins Group bacteria collection) was grown at 37 °C overnight with 200 rpm shaking in 10 mL of LB (Merck, Germany). […] Inoculation and CFU was determined by the Miles and Misra quantification technique.[56] At regular time intervals during the experiment, a sample was taken aseptically from each artificial bladder for bacterial quantification and to measure the pH. The end of the experiment was determined when the bladders blocked. Additionally, the artificial bladders were monitored by time-lapse photography overnight using a Nikon D3100 camera with photos taken every 2 min.

[7] = system: HepG2 cells; assay: HepG2 mammalian cell viability (MTT assay); assay type: cell-based; details: for survival of HepG2 cells: 10 mM, 24 h incubation
Method: Freezer stocks of HepG2 cells were defrosted and re-suspended in Dulbecco's Eagle medium (DMEM) complete (Gibco, this contains minimum essential media (MEM, Gibco)). A T75 flask (Nunc) was seeded with 10 mL of complete DMEM. Cells were grown for 3–4 days, a 37 °C, 5% CO2, to achieve adherent cells. Old media was removed and 5 mL of PBS added to wash the cells, this was then aspirated. Cells were incubated with 3 mL, 0.25% trypsin (Gibco), and PBS (previously warmed to 37 °C) for 7 min at 37 °C. After incubation cells were checked using a microscope (Nikon TMS inverted phase contrast) to confirm that they were no longer adherent. Cells were dissociated with 4 mL of media and re-suspended by pipetting 10 mL approximately 20 times. Cells were centrifuged for 3 min at 1000 rpm, media was aspirated, and pellet was resuspended in 1 mL of media. Cells were counted using a hemocytometer and new flasks were reseeded with 200 μL of cells to 10 mL of media. To maintain stocks, cells were sub-cultured every 2–3 days.
Compounds, AHA and Bis-TU, were prepared at 10 mM with 1% DMSO in DMEM media. Varying concentrations of compounds were prepared by serial dilution across at 96-well plate (100 μL). MTT (Invitrogen) assay was used to measure the metabolic activity of the HepG2 cells. MTT (1 mg mL^−1) in media was filter sterilized and cell culture plates, 96-well (Nunc), were seeded with 1 × 10^4 cells per well and grown for 24 h. Media/compound was removed and MTT (100 μL) was added for 60 min at 37 °C and then removed. Isopropanol (150 μL) was added and the plate was incubated in foil for 15 min on an orbital shaker. Absorbance was measured at 590 nm (reference filter at 620 nm) (Sunrise, Tecan). The % survival was calculated as per eqn (4).4 [drawing 4]

Compound | IC50 ([1]; whole cell Proteus mirabilis, ± standard deviation) | IC50 [1] | A1 (dose-response fit parameter) [1] | A2 (dose-response fit parameter) [1] | LOGx0 (dose-response fit) [1] | inhibitory effect on growth [2] | release across balloon of Biomodics IPN catheter [3] | release across balloon of standard silicone catheter [3] | fold lower IC50 than AHA [1] | solubility [4] | inhibitory effect on growth [5] | catheter blockage time (lifetime of the catheter) [6] | pH in the bladder model [6] | quantity of bacteria (CFU mL^−1) in the bladder model [6] | survival of HepG2 cells [7] | effect on HepG2 cells, AHA vs Bis-TU ([7]; concentrations below 1.25 mM, 24 h) | IC50 ([1]; whole cell Proteus mirabilis, ± standard deviation, read-out: IC50)
NC(=O)CS [Compound 2-MA, 2-mercaptoacetamide, reference compound] | did not fit to a sigmoidal dose–response curve; also recorded: No fit | – | – | – | – | – | – | – | – | – | – | – | – | – | – | – | –
NC(=S)Nc1ccccc1 [Compound A5, N-phenylthiourea] | – | 9.66 µM | -2834% | 141.8% | -5.015 | – | – | – | – | – | – | – | – | – | – | – | –
NC(=S)NCc1ccccc1 [Compound A6, benzylthiourea] | – | 22.7 µM | 5.57% | 78.71% | -4.644 | – | – | – | – | – | – | – | – | – | – | – | –
S=C(NCc1cccnc1)NCc1cccnc1 [Compound A11, N,N′-bis(3-pyridinylmethyl)thiourea] | – | 1.4 µM | -6.896% | 85.9% | -5.851 | only a modest inhibitory effect | zero order kinetics release | no release | ca. 25 fold | relatively low solubility | only a modest inhibitory effect | significantly outperformed the clinical standard AHA, and the control | lower than that of the AHA and control bladders | comparable across all bladders | affect the survival | no difference | –
O=c1c(O)c(-c2ccc(O)c(O)c2)oc2cc(O)cc(O)c12 [Quercetin, quercetin, reference compound] | – | 0.866 µM | -6.874% | 68.53% | – | – | – | – | ca. 25 fold | – | – | – | – | – | – | – | –
Acetohydroxamic acid [AHA, reference compound] | – | – | 1.739% | 91.3% | -4.436 | only a modest inhibitory effect | zero order kinetics release | no release | – | – | only a modest inhibitory effect | – | – | comparable across all bladders | affect the survival | – | 36.6 µM
